Reference: ChEMBL document CHEMBL1201862, “PubChem BioAssay data set” (2004)
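Assay format: 96-well plates, 48-hour exposure. GI50 marks 50% less growth.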 Calls of active or inactive are those of the source. No stated cut-off is given here; in the data, active = GI50 up to about 1.1 µM and inactive = higher.

How the values were obtained:
Experiment in all cases: NCI anticancer screen, dose series, 48 h
[1] = system: HCT-116
[2] = system: HOP-92
[3] = system: COLO 205
[4] = system: Malme-3M
[5] = system: SK-MEL-5
[6] = system: SNB-75
[7] = system: UACC-257
[8] = system: HCT-15
[9] = system: MOLT-4
[10] = system: HCC 2998
[11] = system: K562
[12] = system: RPMI-8226
[13] = system: NCI-H226
[14] = system: EKVX
[15] = system: UACC-62
[16] = system: UO-31
[17] = system: A498
[18] = system: LOX IMVI
[19] = system: SF-539
[20] = system: TK-10

Compound	GI50 [1]	GI50 [2]	GI50 [3]	GI50 [4]	GI50 [5]	GI50 [6]	GI50 [7]	GI50 [8]	GI50 [9]	GI50 [10]	GI50 [11]	GI50 [12]	GI50 [13]	GI50 [14]	GI50 [15]	GI50 [16]	GI50 [17]	GI50 [18]	GI50 [19]	GI50 [20]
COCOc1ccc(OC)cc1	> 100 µM (inactive)	> 100 µM (inactive)	> 100 µM (inactive)	> 100 µM (inactive)	> 100 µM (inactive)	> 100 µM (inactive)	> 100 µM (inactive)	> 100 µM	> 100 µM (inactive)	> 100 µM (inactive)	> 100 µM (inactive)	> 100 µM (inactive)	> 100 µM (inactive)	> 100 µM (inactive)	> 100 µM (inactive)	> 100 µM (inactive)	> 100 µM (inactive)	> 100 µM (inactive)	> 100 µM (inactive)	–
CCc1cc(Cc2cc(CC)c(NC(=O)C(=O)CC(=O)c3sc(-c4cccnc4)nc3C)c(CC)c2)cc(CC)c1NC(=O)C(=O)CC(=O)c1sc(-c2cccnc2)nc1C	> 100 µM (inactive)	> 100 µM (inactive)	> 100 µM (inactive)	> 100 µM (inactive)	> 100 µM (inactive)	> 100 µM (inactive)	> 100 µM (inactive)	> 100 µM	> 100 µM (inactive)	> 100 µM (inactive)	> 100 µM (inactive)	> 100 µM (inactive)	> 100 µM (inactive)	> 100 µM (inactive)	> 100 µM (inactive)	> 100 µM (inactive)	> 100 µM (inactive)	> 100 µM (inactive)	> 100 µM (inactive)	–
COC1(OC)C2(Cl)C(Cl)=C(Cl)C1(Cl)C1COCC12 (stereo not drawn)	–	> 81.3 µM (inactive)	> 100 µM (inactive)	> 100 µM (inactive)	> 100 µM (inactive)	> 100 µM (inactive)	> 100 µM (inactive)	> 100 µM	> 100 µM (inactive)	> 100 µM (inactive)	> 88.5 µM (inactive)	> 72.4 µM (inactive)	> 100 µM (inactive)	–	> 100 µM (inactive)	> 100 µM (inactive)	> 100 µM (inactive)	> 100 µM (inactive)	> 100 µM (inactive)	> 40.7 µM (inactive)
Cc1ccc(N2C(=O)N(c3ccc(C)cc3)C3(SC=NN3C)C2=O)cc1 (stereo not drawn)	46.6 µM (inactive)	> 100 µM (inactive)	91 µM (inactive)	95.5 µM (inactive)	30 µM (inactive)	> 100 µM (inactive)	38.6 µM (inactive)	–	63.2 µM (inactive)	98.9 µM (inactive)	40.6 µM (inactive)	49.2 µM (inactive)	72.8 µM (inactive)	> 100 µM (inactive)	74 µM (inactive)	42 µM (inactive)	73.1 µM (inactive)	32.3 µM (inactive)	> 100 µM (inactive)	66.4 µM (inactive)
N/C(=N/O)N/N=C\c1cc(Cl)cc(Cl)c1O	1.36 µM (inactive)	7.26 µM (inactive)	5.7 µM (inactive)	4.86 µM (inactive)	3.3 µM (inactive)	1.03 µM (active)	4.34 µM (inactive)	2.02 µM	0.55 µM (active)	2.31 µM (inactive)	3.06 µM (inactive)	3.99 µM (inactive)	2.01 µM (inactive)	6.71 µM (inactive)	0.42 µM (active)	4.25 µM (inactive)	6.38 µM (inactive)	0.918 µM (active)	1.64 µM (inactive)	–
CC/C=C\C/C=C\C/C=C\CCCCCCCC(=O)OCC	> 100 µM (inactive)	> 100 µM (inactive)	> 100 µM (inactive)	> 100 µM (inactive)	> 100 µM (inactive)	> 100 µM (inactive)	> 100 µM (inactive)	–	87.1 µM (inactive)	> 100 µM (inactive)	> 100 µM (inactive)	70.6 µM (inactive)	> 100 µM (inactive)	> 100 µM (inactive)	> 100 µM (inactive)	> 100 µM (inactive)	> 100 µM (inactive)	42.6 µM (inactive)	> 100 µM (inactive)	> 100 µM (inactive)
